Assay results: ChEMBL document CHEMBL4052715, “Discovery of novel DAPY-IAS hybrid derivatives as potential HIV-1 inhibitors using molecular hybridization based on crystallographic overlays” (Bioorg Med Chem, 2017)
Calls of active or inactive are those of the source. The rule behind the calls is not given here.

Tests used:
[1] = Selectivity index, ratio of CC50 for human MT4 cells to EC50 for wild type HIV1 3B infected in human MT4 cells; type: toxicity, cell-based; details: read-out: Ratio CC50/EC50
[2] = system: Human immunodeficiency virus 1; assay: Antiviral activity against HIV1 RES056 harboring reverse transcriptase K103N/Y181C double mutant infected in human MT4 cells assessed as inhibition of virus-induced cytopathic effect after 5 days by MTT assay; type: functional, cell-based
[3] = Cytotoxicity against human MT4 cells assessed as reduction in cell viability after 5 days by MTT assay; type: cell-based
[4] = system: Human immunodeficiency virus 2; assay: Antiviral activity against HIV2 ROD harboring reverse transcriptase K103N/Y181C double mutant infected in human MT4 cells assessed as inhibition of virus-induced cytopathic effect after 5 days by MTT assay; type: functional, cell-based; details: ISOLATE ROD
[5] = system: Human immunodeficiency virus 1; assay: Antiviral activity against wild type HIV1 3B infected in human MT4 cells assessed as inhibition of virus-induced cytopathic effect after 5 days by MTT assay; type: functional, cell-based; details: Human immunodeficiency virus 1, 3B, MT4, 120 h
[6] = system: Human immunodeficiency virus 1; assay: Inhibition of recombinant wild type HIV1 reverse transcriptase assessed as reduction in biotin-dUTP incorporation at 50 uM using poly(A)/oligo(dT)15 as template/primer by ELISA relative to control

| SMILES | selectivity ratio [1] | inhibition [2] | CC50 at 120 h [3] | inhibition [4] | EC50 [5] | inhibition [6] |
| --- | --- | --- | --- | --- | --- | --- |
| CC(C)c1cc(C(C)C)c(S(=O)(=O)Nc2ccnc(Nc3ccc(C#N)cc3)n2)c(C(C)C)c1 | < 1 | inactive | 17.4 µM | inactive | > 17.4 µM |  |
| N#Cc1ccc(Nc2cc(NS(=O)(=O)c3ccc(F)cc3)ccn2)cc1 | < 1 | inactive | 6.12 µM | inactive | > 6.12 µM |  |
| Cc1cc(C)c(S(=O)(=O)Nc2ccnc(Nc3ccc(C#N)cc3)n2)c(C)c1 | < 1 | inactive | 4.4 µM | inactive | > 4.4 µM |  |
| N#Cc1ccc(Nc2cc(NS(=O)(=O)c3ccc(C(F)(F)F)cc3)ccn2)cc1 | < 1 | inactive | 28 µM | inactive | > 28 µM |  |
| Cc1cc(C)cc(S(=O)(=O)Nc2ccnc(Nc3ccc(C#N)cc3)c2)c1 | < 1 | inactive | 5.06 µM | inactive | > 5.06 µM |  |
| N#Cc1ccc(Nc2nccc(NS(=O)(=O)c3ccc(F)cc3)n2)cc1 | ≤ 4 | inactive | 36.6 µM | inactive | ≥ 9.05 µM |  |
| Cc1cc(C#N)cc(C)c1Oc1nc(Nc2ccc(C#N)cc2)nc(N)c1Br [ETRAVIRINE] | 541 |  | 2.15 µM |  | 0.004 µM | 93.3% |
| Nc1ccn([C@@H]2CS[C@H](CO)O2)c(=O)n1 [LAMIVUDINE] | > 34 |  | > 87.2 µM |  | 2.54 µM |  |
| CC(C)(C)c1ccc(S(=O)(=O)Nc2ccnc(Nc3ccc(C#N)cc3)n2)cc1 | 4 | inactive | 30.3 µM | inactive | 7.52 µM |  |
| N#Cc1ccc(Nc2nccc(NS(=O)(=O)c3cc(F)cc(F)c3)n2)cc1 | 2 | inactive | 93.9 µM | inactive | 47 µM |  |
| Cc1cc(C)cc(S(=O)(=O)c2c(C(N)=O)[nH]c3ccc(Cl)cc23)c1 | 4260 |  | 11 µM |  | 0.0026 µM |  |
| N#Cc1ccc(Nc2nccc(NS(=O)(=O)c3ccc(C(F)(F)F)cc3)n2)cc1 | < 1 | inactive | 54.7 µM | inactive | > 54.7 µM |  |
| N#Cc1ccc(Nc2nccc(NS(=O)(=O)c3ccc4ccccc4c3)n2)cc1 | 2 | inactive | 77.1 µM | inactive | 48.9 µM |  |
| Cc1ccc(S(=O)(=O)Nc2ccnc(Nc3ccc(C#N)cc3)c2)cc1 | 9 | inactive | 14 µM | inactive | 1.48 µM | 5.7% |
| Cc1cc(C)c(S(=O)(=O)Nc2ccnc(Nc3ccc(C#N)cc3)c2)c(C)c1 | 4 | inactive | 22.2 µM | inactive | 6.08 µM |  |
| Cc1ccnc2c1NC(=O)c1cccnc1N2C1CC1 |  |  |  |  |  | 88% |
| N#Cc1ccc(Nc2nccc(NS(=O)(=O)c3cc(C(F)(F)F)cc(C(F)(F)F)c3)n2)cc1 | < 1 | inactive | 115 µM | inactive | > 115 µM |  |
| N#Cc1ccc(Nc2nccc(NS(=O)(=O)c3ccc(C#N)cc3)n2)cc1 | 4 | inactive | 159 µM | inactive | 39.4 µM |  |
| O=c1[nH]cnc2c1ncn2[C@H]1CC[C@@H](CO)O1 [DIDANOSINE] | > 3 |  | > 212 µM |  | 76 µM |  |
| N#Cc1ccc(Nc2cc(NS(=O)(=O)c3cc(C(F)(F)F)cc(C(F)(F)F)c3)ccn2)cc1 | < 1 | inactive | 62.2 µM | inactive | > 62.2 µM |  |
| N#Cc1ccc(Nc2cc(NS(=O)(=O)c3cc(F)cc(F)c3)ccn2)cc1 | < 1 | inactive | 28.6 µM | inactive | > 28.6 µM |  |
| N#Cc1ccc(Nc2cc(NS(=O)(=O)c3ccc4ccccc4c3)ccn2)cc1 | < 1 | inactive | 30 µM | inactive | > 30 µM |  |
| N#Cc1ccc(Nc2cc(NS(=O)(=O)c3ccc(C#N)cc3)ccn2)cc1 | < 1 | inactive | 93.4 µM | inactive | > 93.4 µM |  |
| Cc1ccc(S(=O)(=O)Nc2ccnc(Nc3ccc(C#N)cc3)n2)cc1 | 80 | inactive | 130 µM | inactive | 1.61 µM | 41.5% |
| Cc1cc(C)cc(S(=O)(=O)Nc2ccnc(Nc3ccc(C#N)cc3)n2)c1 | 28 | inactive | 173 µM | inactive | 6.21 µM |  |
| CC(C)(C)c1ccc(S(=O)(=O)Nc2ccnc(Nc3ccc(C#N)cc3)c2)cc1 | 6 | inactive | 29.3 µM | inactive | 4.92 µM |  |
| CC(C)c1cc(C(C)C)c(S(=O)(=O)Nc2ccnc(Nc3ccc(C#N)cc3)c2)c(C(C)C)c1 | < 1 | inactive | 11.5 µM | inactive | > 11.5 µM |  |
